Test results as given in patent US20130158112A1, “COMPOSITIONS AND METHODS FOR INHIBITING BETA AMYLOID SECRETION” (priority 2011, published 2013).
“And” between values parts separate entries of the source, which are not always exact repeats. Equal entries are not always repeated. “Also recorded” adds a separate entry of the source.

What was measured:
Caco-2 cells = assay: Epithelial transcellular transport of drug activity through Caco-2 monolayers; assay type: in vitro ADME
Description: H4βAPP695 wt cells, a human […] cell line stably transfected with a wtβAPP695 expression vector construct under the control of a CMV promoter (kindly provided by Dr. Chris Eckman from Mayo Clinic, Florida) were cultured as previously described. Twenty-four hours before drug treatment, the media was replaced with serum-free media. Cells were then incubated with drugs (dissolved in DMSO) or vehicle for 24 h for collection of conditioned media and cell lysates. For the PKC inhibitors experiment, three inhibitors were treated 30 min prior to drug challenge. Primary cortical neurons were prepared from embryonic day 18 APP and presenilin 1 (APPswe, PSEN1dE9) transgenic mice on the C57BL/6 genetic background (Jackson Laboratories, strain no. 5864) as previously described. THLE-3 human hepatoma cells (from ATCC) were plated in 24-well plates that were precoated with 10 μg/mL bovine serum albumin, 10 μg/mL fibronectin, and 30 μg/mL bovine type I collagen. The cells were grown in BEGM media (Clonetics) until confluent and treated with drugs at 20 μM for 24 h. This conditioned media was harvested, diluted 1:1 in serum-free medium, and incubated with H4βAPP695 wt cells for 24 h prior to analysis of secreted Aβ, which was compared to the effect of 10 μM drug treatments without prior incubation with the THLE-3 cells. Caco-2 cells (ATCC) were plated in 12-well plates with Transwell inserts (Costar) at 70000 cells per well and grown for 21 days. The media volume of the apical and basal chambers was 0.5 and 1.5 mL, respectively. Transepithelial resistance was measured in each well and found to be >160 Ω/cm^2. Drugs at 40 μM and 20 μg/mL of lucifer yellow were added in serum-free medium to the apical chamber. Four hours later, the basal chamber media was harvested and used to measure lucifer yellow fluorescence to confirm monolayer integrity as well as for treatment of H4βAPP695 wt cells for 24 h prior to analysis of secreted Aβ, which was compared to the effect of direct addition of 10 μM of the corresponding drug.
Monolayer integrity was confirmed by high levels of transcellular electrical resistance (>160 ohms/cm^2) and by transcellular impermeability to the fluorescent dye lucifer yellow. […] The concentration of each compound added to the upper chamber would lead to 10 μM in the lower chamber if equilibration was complete, and thus the activity of the lower chamber media was compared to the activity of 10 μM drug added directly to the H4βAPP695 wt cells. […] Compound 1 crossed the monolayer and the bottom chamber media led to a 27% reduction in Aβ production, yielding 38% of the theoretical activity. The compound with the most activity in the lower chamber was compound 48, which decreased Aβ production by 50%, with 71% of its theoretical activity. […] On the basis of the combined activity data from these last two studies, compound 48 was selected as the lead drug for in vivo study.

APP = assay: Western blot of APP processing products (sAPPα, sAPPβ, holoAPP, αCTF) in H4βAPP695 wt cells; assay type: cell-based, human; details: 10 μM, 24 h
Description: The alternate processing of holoAPP by either the β-secretase (a precursor to Aβ production) or α-secretase (which clips in the middle of the Aβ region) is shown in FIG. 2A. Compound 1 induced decrease in total Aβ secretion may be due to its effect on APP processing or due to decreased production of its precursor APP. To probe its mechanism, H4βAPP695 wt cells were treated with 10 μM 1 for 24 h. Using Western blot assays, we measured secreted APPα (sAPPα) and APPβ (sAPPβ) in the conditioned media, and full-length holo-APP and the 83 residue long α-C-terminal fragment (α-CTF) in cell lysate. […] Thus, 1 appears to decrease Aβ secretion by activating the α-secretase pathway, a favorable pathway as the large secreted sAPPα protein is reported to have neurotrophic and neuroprotective activities.

O=C(NCCSCc1cccc(Cl)c1)c1c(Cl)cccc1Cl [Compound 1]
% theoretical activity (Caco-2 cells; % of activity passing through Caco-2 monolayer): 38% and 38.4%
inhibition at 10 µM (Caco-2 cells; Homo sapiens, Caco-2, 10 μM drug alone added directly to H4βAPP695 wt cells, read-out: transcellular transport No total Aβ (% decrease)): 69.4%
inhibition at up to 10 µM (Caco-2 cells; Homo sapiens, Caco-2, 4 h, lower chamber media after 4 h on Caco-2 monolayer, 10 μM if in equilibrium, read-out: transcellular transport Yes total Aβ (% decrease)): 27%
cellular full length (holo) APP level (APP): without altering holoAPP levels
increase of cellular α-CTF levels (APP): over 2 fold
increase of sAPPα levels (APP): over 3 fold
sAPPα level (APP): caused an increase; also recorded: increased
sAPPβ level (APP): without altering
αCTF level (APP): caused an increase; also recorded: increased
